The results in this text go back to publication PMC7217877, “N-AS-triggered SPMs are direct regulators of microglia in a model of Alzheimer’s disease” (Nature Communications, 2020).

One assay relates to astrocyte. The assay can be described thus: western blotting for ac-S565 and total COX2 in primary cells. The format is cell-based, C57BL/6 mice. Particulars: Ab 10mM, replicates. As for the experimental part: To confirm the generation and roles of N-AS in neurons, cells from E18 C57BL/6 mice were prepared as previously described. Cortices were dissected and then dissociated followed by incubation in papain (Worthington) at 37 °C for 15 min. Neurons were plated on poly-L-lysine-coated coverslips with neuronal culture medium, serum-free Neurobasal medium (Gibco) containing 2% B27 supplements (Gibco), 1 mM Glutamax supplement (Gibco), and 100 U ml^−1 streptomycin/ 100 U ml^−1 penicillin (Gibco) at 37 °C in a humidified atmosphere of 5% CO2. Aβ 1–42 (10 μM, 24 h, Invitrogen, 03112) was exposed to neurons and the cells were analyzed for the generation and roles of N-AS. Primary astrocyte cultures were prepared from C57BL/6 mice as described previously. In brief, after removal of the meninges, postnatal day 7 (P7) mouse brain tissues were minced and incubated in a rocking water bath at 37 °C for 30 min in the presence of 0.25% trypsin-EDTA (Sigma-Aldrich). […] The human microglia treated with Aβ 1–42 and/or zileuton was incubated with N-AS (2.5 μM, 2 h, Sigma-Aldrich, 01912), and were analyzed for the generation and roles of N-AS.
Samples were lysed in RIPA buffer (Cell signaling Technologies), then subjected to SDS-PAGE and transferred to a nitrocellulose membrane. […] We performed densitometric quantification using the ImageJ software (National Institutes of Health). […]

Another assay concerns the target T1, COX2 T564A (Homo sapiens, UniProt P35354, T564A).
T1 construct: His (N); made in house
T1 sequence (P35354 18-604 T564A): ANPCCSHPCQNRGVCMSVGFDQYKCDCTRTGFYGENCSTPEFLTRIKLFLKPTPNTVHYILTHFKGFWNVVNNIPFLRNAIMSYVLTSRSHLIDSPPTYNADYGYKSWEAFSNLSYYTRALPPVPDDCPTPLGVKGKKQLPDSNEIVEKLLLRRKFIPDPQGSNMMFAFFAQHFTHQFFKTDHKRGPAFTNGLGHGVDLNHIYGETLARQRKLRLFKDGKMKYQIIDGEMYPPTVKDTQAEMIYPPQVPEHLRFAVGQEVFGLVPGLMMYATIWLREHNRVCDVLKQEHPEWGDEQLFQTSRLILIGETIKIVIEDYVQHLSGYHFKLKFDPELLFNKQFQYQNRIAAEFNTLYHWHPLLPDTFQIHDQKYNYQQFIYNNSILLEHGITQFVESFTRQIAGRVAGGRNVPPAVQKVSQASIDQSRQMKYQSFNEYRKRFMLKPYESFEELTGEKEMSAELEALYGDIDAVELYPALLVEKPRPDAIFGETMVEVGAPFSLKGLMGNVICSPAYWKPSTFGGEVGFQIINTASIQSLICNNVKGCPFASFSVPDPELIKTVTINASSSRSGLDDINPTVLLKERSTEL
The assay can be described thus: in vitro [14C] acetylation assay of purified COX2. It is filed as biochemical. Also on record: unit not given here. The note with it: replicates, listed as C14 N-AS. The source says: Single point mutations in SphK1 (R56A, R57A, R24A, R185A, D178A, and F192A) and COX2 (S565A, N181A, T564A, and S567A) were generated using the In-Fusion Cloning Kits (Clontech) and ORF cDNA expression plasmids of human SphK1 and COX2 gene (Sino Biological Inc, HG15679-NH and HG12036-NH), according to the manufacturer’s instructions. The forward and reverse primers described in Supplementary Table 4. The SphK1 WT, SphK1 mutants, COX2 WT, and COX2 mutant plasmids were transformed in the One shot TOP 10 competent cell (Invitrogen). The bacteria were grown in Luria-Bertani (LB, Invitrogen) plates supplemented with 50 μg ml^−1 kanamycin (Sigma-Aldrich) at 37 °C. The bacterial cell pellets were resuspended in lysis buffer containing 20 mM sodium phosphate (GE Healthcare), 500 mM NaCl (GE Healthcare), 20 mM imidazole (pH 7.4) (GE Healthcare), 0.2 mg ml^−1 lysozyme (Sigma-Aldrich), 20 μg ml^−1 DNase I (Roche), 1 mM MgCl2 (Sigma-Aldrich), and 1 mM PMSF (Sigma-Aldrich) before being lysed by sonication and clarified by centrifugation at 15,493×g for 10 min. […]
Acetylation assays were performed according to previously described procedures with minor modifications. […] Acetylated COX2 proteins bound to the beads were analyzed using a Tri-Carb 3110TR liquid scintillation counter (Perkin-Elmer).

“And” between values parts separate entries of the source, which are not always exact repeats. Equal entries are not always repeated.

Consider “Ab: Aβ 1–42 (Invitrogen, 03112) used to induce an AD environment in cells”, for which the “ac-S565 / total COX2, western blotting (Fig 3b)” value with astrocyte is 0.1055 and 0.07523 and 0.08324 and 0.06718 and 0.09034 and 0.07923.

For the compound `CCCCCCCCCCCCC/C=C/[C@@H](O)[C@H](CO)NC(C)=O` [N-AS, N-((2S,3R,E)-1,3-Dihydroxyoctadec-4-en-2-yl)acetamide], the “C14 radioactivity of COX2, acetylation assay (Fig 1h)” value on COX2 T564A is 226529 and 226073 and 226403 and 227396 and 226676 and 226952.
